Measured values: ChEMBL document CHEMBL1201862, “PubChem BioAssay data set” (2004)
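Grown in 96-well plates, cells were treated for 48 hours with each compound at five concentrations. Insufficient inhibition: endpoint recorded as highest concentration tested. The concentration for 50% growth inhibition is given as GI50.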 Active and inactive are the calls of the source. Rule as the data show it: active = GI50 up to about 1.1 µM and inactive = higher.

What was measured:
Assay in all cases: growth of human tumour cells (NCI), 48 h
786-0 = system: 786-0
A549 = system: A549
ACHN = system: ACHN
CAKI-1 = system: CAKI-1
CCRF-CEM = system: CCRF-CEM
COLO 205 = system: COLO 205
DLD-1 = system: DLD-1
DMS-114 = system: DMS-114
DMS-273 = system: DMS-273
HCC 2998 = system: HCC 2998
HCT-116 = system: HCT-116
HL-60 = system: HL-60
HOP-18 = system: HOP-18
HOP-62 = system: HOP-62
HOP-92 = system: HOP-92
HT-29 = system: HT-29
IGROV-1 = system: IGROV-1
K562 = system: K562
KM12 = system: KM12
LOX IMVI = system: LOX IMVI
LXFL 529 = system: LXFL 529
M14 = system: M14
M19-MEL = system: M19-MEL
MOLT-4 = system: MOLT-4
Malme-3M = system: Malme-3M
NCI-H23 = system: NCI-H23
NCI-H460 = system: NCI-H460
NCI-H522 = system: NCI-H522
OVCAR-3 = system: OVCAR-3
OVCAR-4 = system: OVCAR-4
OVCAR-5 = system: OVCAR-5
OVCAR-8 = system: OVCAR-8
RXF 393 = system: RXF 393
RXF 631 = system: RXF 631
SF-268 = system: SF-268
SF-295 = system: SF-295
SF-539 = system: SF-539
SK-MEL-28 = system: SK-MEL-28
SK-MEL-5 = system: SK-MEL-5
SN12C = system: SN12C
SNB-19 = system: SNB-19
SNB-75 = system: SNB-75
SNB-78 = system: SNB-78
SR = system: SR
SW-620 = system: SW-620
TK-10 = system: TK-10
U-251 = system: U-251
UACC-257 = system: UACC-257
UACC-62 = system: UACC-62
UO-31 = system: UO-31
XF498 = system: XF498
A498 = system: A498
EKVX = system: EKVX
HCT-15 = system: HCT-15
KM-20L2 = system: KM-20L2
NCI-H226 = system: NCI-H226
RPMI-8226 = system: RPMI-8226
SK-OV-3 = system: SK-OV-3
SK-MEL-2 = system: SK-MEL-2

SMILES: NCC1(N2CCOCC2)C2CCCC21CNc1ccccc1 (centres undefined)
- GI50 (786-0): > 100 µM (inactive)
- GI50 (A549): > 100 µM (inactive)
- GI50 (ACHN): > 100 µM (inactive)
- GI50 (CAKI-1): > 100 µM (inactive)
- GI50 (CCRF-CEM): > 100 µM (inactive)
- GI50 (COLO 205): > 100 µM (inactive)
- GI50 (DLD-1): > 100 µM (inactive)
- GI50 (DMS-114): > 100 µM (inactive)
- GI50 (DMS-273): > 100 µM (inactive)
- GI50 (HCC 2998): 61 µM (inactive)
- GI50 (HCT-116): > 100 µM (inactive)
- GI50 (HL-60): 53.8 µM (inactive)
- GI50 (HOP-18): > 100 µM (inactive)
- GI50 (HOP-62): > 100 µM (inactive)
- GI50 (HOP-92): 41.9 µM (inactive)
- GI50 (HT-29): > 100 µM (inactive)
- GI50 (IGROV-1): > 100 µM (inactive)
- GI50 (K562): 90.6 µM (inactive)
- GI50 (KM12): > 100 µM (inactive)
- GI50 (LOX IMVI): > 100 µM (inactive)
- GI50 (LXFL 529): > 100 µM (inactive)
- GI50 (M14): > 100 µM (inactive)
- GI50 (M19-MEL): > 100 µM (inactive)
- GI50 (MOLT-4): 92.3 µM (inactive)
- GI50 (Malme-3M): > 100 µM (inactive)
- GI50 (NCI-H23): > 100 µM (inactive)
- GI50 (NCI-H460): > 100 µM (inactive)
- GI50 (NCI-H522): > 100 µM (inactive)
- GI50 (OVCAR-3): > 100 µM (inactive)
- GI50 (OVCAR-4): > 100 µM (inactive)
- GI50 (OVCAR-5): > 100 µM (inactive)
- GI50 (OVCAR-8): > 100 µM (inactive)
- GI50 (RXF 393): 56.4 µM (inactive)
- GI50 (RXF 631): > 100 µM (inactive)
- GI50 (SF-268): > 100 µM (inactive)
- GI50 (SF-295): > 100 µM (inactive)
- GI50 (SF-539): > 100 µM (inactive)
- GI50 (SK-MEL-28): > 100 µM (inactive)
- GI50 (SK-MEL-5): > 100 µM (inactive)
- GI50 (SN12C): > 100 µM (inactive)
- GI50 (SNB-19): > 100 µM (inactive)
- GI50 (SNB-75): 57.9 µM (inactive)
- GI50 (SNB-78): > 100 µM (inactive)
- GI50 (SR): > 100 µM (inactive)
- GI50 (SW-620): > 100 µM (inactive)
- GI50 (TK-10): > 100 µM (inactive)
- GI50 (U-251): > 100 µM (inactive)
- GI50 (UACC-257): > 100 µM (inactive)
- GI50 (UACC-62): > 100 µM (inactive)
- GI50 (UO-31): > 100 µM (inactive)
- GI50 (XF498): 69.8 µM (inactive)

SMILES: Cc1ccc(N(C(=O)CC(=O)NN)C(=O)c2ccccc2Cl)cc1
- GI50 (786-0): > 100 µM (inactive)
- GI50 (A498): > 100 µM (inactive)
- GI50 (A549): > 100 µM (inactive)
- GI50 (ACHN): > 100 µM (inactive)
- GI50 (CAKI-1): > 100 µM (inactive)
- GI50 (CCRF-CEM): > 100 µM (inactive)
- GI50 (COLO 205): > 100 µM (inactive)
- GI50 (DLD-1): > 100 µM (inactive)
- GI50 (DMS-114): > 100 µM (inactive)
- GI50 (DMS-273): > 100 µM (inactive)
- GI50 (EKVX): > 100 µM (inactive)
- GI50 (HCC 2998): > 100 µM (inactive)
- GI50 (HCT-116): > 100 µM (inactive)
- GI50 (HCT-15): > 100 µM
- GI50 (HL-60): > 100 µM (inactive)
- GI50 (HOP-18): > 100 µM (inactive)
- GI50 (HOP-62): > 100 µM (inactive)
- GI50 (HOP-92): > 100 µM (inactive)
- GI50 (HT-29): > 100 µM (inactive)
- GI50 (IGROV-1): > 100 µM (inactive)
- GI50 (K562): > 100 µM (inactive)
- GI50 (KM-20L2): > 100 µM (inactive)
- GI50 (KM12): > 100 µM (inactive)
- GI50 (LOX IMVI): > 100 µM (inactive)
- GI50 (LXFL 529): > 100 µM (inactive)
- GI50 (M14): > 100 µM (inactive)
- GI50 (M19-MEL): > 100 µM (inactive)
- GI50 (MOLT-4): > 100 µM (inactive)
- GI50 (Malme-3M): > 100 µM (inactive)
- GI50 (NCI-H226): > 100 µM (inactive)
- GI50 (NCI-H23): > 100 µM (inactive)
- GI50 (NCI-H460): > 100 µM (inactive)
- GI50 (NCI-H522): > 100 µM (inactive)
- GI50 (OVCAR-3): > 100 µM (inactive)
- GI50 (OVCAR-4): > 100 µM (inactive)
- GI50 (OVCAR-5): > 100 µM (inactive)
- GI50 (OVCAR-8): > 100 µM (inactive)
- GI50 (RPMI-8226): > 100 µM (inactive)
- GI50 (RXF 393): > 100 µM (inactive)
- GI50 (RXF 631): > 100 µM (inactive)
- GI50 (SF-268): > 100 µM (inactive)
- GI50 (SF-295): > 100 µM (inactive)
- GI50 (SF-539): > 100 µM (inactive)
- GI50 (SK-MEL-28): > 100 µM (inactive)
- GI50 (SK-OV-3): > 100 µM (inactive)
- GI50 (SN12C): > 100 µM (inactive)
- GI50 (SNB-19): > 100 µM (inactive)
- GI50 (SNB-75): > 100 µM (inactive)
- GI50 (SNB-78): > 100 µM (inactive)
- GI50 (SW-620): > 100 µM (inactive)
- GI50 (U-251): > 100 µM (inactive)
- GI50 (UACC-257): > 100 µM (inactive)
- GI50 (UACC-62): > 100 µM (inactive)
- GI50 (UO-31): > 100 µM (inactive)
- GI50 (XF498): > 100 µM (inactive)

SMILES: COC(=O)C(Cc1nc2ccc(Cl)cc2nc1O)C(=O)C(=O)Nc1ccccc1[N+](=O)[O-] (centres undefined)
- GI50 (786-0): > 100 µM (inactive)
- GI50 (A498): > 100 µM (inactive)
- GI50 (A549): > 100 µM (inactive)
- GI50 (ACHN): > 100 µM (inactive)
- GI50 (CAKI-1): > 100 µM (inactive)
- GI50 (CCRF-CEM): > 100 µM (inactive)
- GI50 (COLO 205): > 100 µM (inactive)
- GI50 (DLD-1): > 100 µM (inactive)
- GI50 (DMS-114): > 100 µM (inactive)
- GI50 (DMS-273): > 100 µM (inactive)
- GI50 (EKVX): 7.8 µM (inactive)
- GI50 (HCC 2998): > 100 µM (inactive)
- GI50 (HCT-116): > 100 µM (inactive)
- GI50 (HCT-15): > 100 µM
- GI50 (HL-60): > 100 µM (inactive)
- GI50 (HOP-18): 93.8 µM (inactive)
- GI50 (HOP-62): > 100 µM (inactive)
- GI50 (HT-29): > 100 µM (inactive)
- GI50 (IGROV-1): > 100 µM (inactive)
- GI50 (K562): > 100 µM (inactive)
- GI50 (KM-20L2): > 100 µM (inactive)
- GI50 (KM12): > 100 µM (inactive)
- GI50 (LOX IMVI): > 100 µM (inactive)
- GI50 (LXFL 529): > 100 µM (inactive)
- GI50 (M14): > 100 µM (inactive)
- GI50 (M19-MEL): > 100 µM (inactive)
- GI50 (MOLT-4): > 100 µM (inactive)
- GI50 (Malme-3M): > 100 µM (inactive)
- GI50 (NCI-H226): > 100 µM (inactive)
- GI50 (NCI-H23): > 100 µM (inactive)
- GI50 (NCI-H460): > 100 µM (inactive)
- GI50 (NCI-H522): > 100 µM (inactive)
- GI50 (OVCAR-3): > 100 µM (inactive)
- GI50 (OVCAR-4): > 100 µM (inactive)
- GI50 (OVCAR-5): > 100 µM (inactive)
- GI50 (OVCAR-8): > 100 µM (inactive)
- GI50 (RPMI-8226): > 100 µM (inactive)
- GI50 (RXF 393): > 100 µM (inactive)
- GI50 (RXF 631): > 100 µM (inactive)
- GI50 (SF-268): > 100 µM (inactive)
- GI50 (SF-295): > 100 µM (inactive)
- GI50 (SF-539): > 100 µM (inactive)
- GI50 (SK-MEL-28): > 100 µM (inactive)
- GI50 (SK-MEL-2): > 100 µM (inactive)
- GI50 (SK-MEL-5): > 100 µM (inactive)
- GI50 (SK-OV-3): > 100 µM (inactive)
- GI50 (SN12C): > 100 µM (inactive)
- GI50 (SNB-19): > 100 µM (inactive)
- GI50 (SNB-75): > 100 µM (inactive)
- GI50 (SNB-78): > 100 µM (inactive)
- GI50 (SR): > 100 µM (inactive)
- GI50 (SW-620): > 100 µM (inactive)
- GI50 (TK-10): > 100 µM (inactive)
- GI50 (U-251): > 100 µM (inactive)
- GI50 (UACC-257): > 100 µM (inactive)
- GI50 (UACC-62): > 100 µM (inactive)
- GI50 (UO-31): > 100 µM (inactive)
- GI50 (XF498): > 100 µM (inactive)
